Data as given in patent US6395728B2, “Method of treatment and pharmaceutical composition” (Novartis AG, priority 1999, dated 2002).

Tested on: diabetic SHRs
Assay: Survival of streptozotocin-induced diabetic SHRs under drug treatment
Type: in vivo, rat
Conditions: week 21 of treatment
Method: Diabetes is induced in SHRs aged about 6 to 8 weeks weighing about 250 to 300 g by treatment e.g. with streptozotocin. The drugs are administered by twice daily average. Untreated diabetic SHRs are used as control group (group 1). Other groups of diabetic SHRs are treated with 30 mg/kg of valsartan (group 2), with 20 mg/kg of verapamil (group 3) and with a combination of 20 mg/kg of valsartan and 15 mg/kg of verapamil (group 4). On a regular basis, besides other parameters the survival rate after 21 weeks of treatment is being monitored.

SMILES	Survival Rate (30 mg/kg of valsartan (group 2)) [%]	Survival Rate (20 mg/kg of verapamil (group 3)) [%]
CCCCC(=O)N(Cc1ccc(-c2ccccc2-c2nnn[nH]2)cc1)[C@H](C(=O)O)C(C)C [valsartan, (S)-N-(1-carboxy-2-methyl-prop-1-yl)-N-pentanoyl-N-[2′(1H-tetrazol-5-yl)biphenyl-4-yl-methyl]amine]	45.9	–
COc1ccc(CCN(C)CCCC(C#N)(c2ccc(OC)c(OC)c2)C(C)C)cc1OC (centres unmarked) [verapamil]	–	42.9
